From PubChem BioAssay AID423 (Public Access to Neuroactive & Anticonvulsant Chemical …, 2006)
Activity calls are given as the source filed them.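 How the source made its calls: active means any mouse or rat spared a seizure in electric shock or chemically induced seizure tests, at any tested dose or timing; inactive means no animal spared a seizure in any test.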

System: mouse/rat MES, scMET, 6Hz seizure protection, qualitative
Experiment: anticonvulsant seizure protection in rodents, summary, in vivo study, qualitative, MES, scMET, 6Hz, i.p. and oral (AID 423)

With `NC(=O)N1c2ccccc2C=Cc2ccccc21` as the compound, how does the outcome read?
The outcome was “active”.

With `CC(C)[N+](C)(CCOC(=O)C1c2ccccc2Oc2ccccc21)C(C)C` as the compound, how does the outcome read?
The outcome was “active; inactive”.

Which outcome does the source give for `CC(=O)OCC[N+](C)(C)C` here?
Its outcome is “active; inactive”.

Which outcome does the source give for `O=C1CC2OCC=C3CN4CCC56c7ccccc7N1C5C2C3CC46` (stereo not given) here?
The outcome was “active; inactive”.

For `CCN(CC)CC(=O)Nc1c(C)cccc1C`, which outcome is on record?
The outcome was “active”.

Which outcome does the source give for `O=C1CN=C(c2ccccc2Cl)c2cc([N+](=O)[O-])ccc2N1` here?
Its outcome is “active”.

How did the outcome turn out when `CCC1(C)CC(=O)NC1=O` (stereo not given) was run?
The outcome was “active; inactive”.

`CCCCC1C(=O)N(c2ccccc2)N(c2ccccc2)C1=O` was tested. Which outcome did it give?
The outcome was “active; inactive”.

How did the outcome turn out when `COC(=O)Nc1nc2ccc(C(=O)c3ccccc3)cc2[nH]1` was run?
Its outcome is “active; inactive”.

Which outcome does the source give for `CCC1(c2ccccc2)C(=O)NC(=O)NC1=O` here?
Its outcome is “active”.
